Among the data in patent US11286268B1, “EIF4E-inhibiting compounds and methods” (EFFECTOR THERAPEUTICS, INC., priority 2019, dated 2022) are IC50 values, retold here.

For this experiment, the target named is recombinant eIF4E (Homo sapiens (Human), UniProt P06730). Briefly: Fluorescence polarization competition assay for eIF4E binding potency. The essentials:
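IC50 derived from fluorescence polarization over an 8-point, 3-fold compound series after 30 min room-temperature equilibration in the dark. Mix: eIF4E 75 nM pre-bound 5 min to 20 nM EDA-m^7GDP-ATTO-550; buffer 20 mM Tris pH 7.5, 100 mM NaCl, 1 mM DTT, 0.02% Tween-20; DMSO 1%.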

[1] abbreviates: fluorescence polarization competition, 75 nM recombinant eIF4E, 20 nM EDA-m7GDP-ATTO-550, IC50 class, read-out: elF4E FP.
Where [2] appears, read: inhibition of eIF4E/EDA-m7GDP-ATTO-550 binding by 50%, Table 4B calculated values, read-out: IC50.
Setting [3] is: inhibition of eIF4E/EDA-m7GDP-ATTO-550 binding, calculated IC50 values, Table 4B, read-out: IC50.

Read-outs that look alike come from different tables or passages of the source.

Chain of recombinant eIF4E (P06730 whole entry): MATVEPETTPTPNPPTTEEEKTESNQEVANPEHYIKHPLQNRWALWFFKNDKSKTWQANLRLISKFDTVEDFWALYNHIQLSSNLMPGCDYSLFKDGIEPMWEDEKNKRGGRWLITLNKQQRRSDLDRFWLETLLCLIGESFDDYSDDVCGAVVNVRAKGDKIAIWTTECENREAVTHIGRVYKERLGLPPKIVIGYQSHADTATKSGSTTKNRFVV

In the case of `Cc1nc2cc(C#N)cc(C#N)c2c(=O)n1CCOc1ccc(Cl)cc1-c1ccnc2c(C(=O)O)csc12` [compound 212], the IC50 runs as follows: under setting [1], < 50 nM; under setting [2], 40 nM. For the molecule `Cc1nc2cnc(N(C)C3CCN(CCC(C)(F)F)CC3)c(C#N)c2c(=O)n1CC#Cc1ccc(Cl)cc1-c1ccnc2c(C(=O)NS(C)(=O)=O)csc12` [compound 1713], under setting [3], the IC50 was 15.8 nM. Regarding `Cc1cc(-c2c(C(F)(F)F)cc3nc(C)n(CCOc4ccc(Cl)cc4-c4cc(C)nc5c(C(=O)O)csc45)c(=O)c3c2C#N)cc(CF)n1` [compound 934], the IC50 is < 50 nM under setting [1] and 13.6 nM under setting [2]. For `Cc1cc(-c2cc(Cl)ccc2OCCn2c(C)nc3cc(C(F)(F)F)c(-c4cnsc4)c(C#N)c3c2=O)c2scc(C(=O)O)c2n1` [compound 347], the IC50 under setting [1] was < 50 nM and the IC50 under setting [2] was 32.1 nM.

In the case of `Cc1nc2cnc(N3CC[N+](CCO)(C(F)F)CC3)c(C#N)c2c(=O)n1CC#Cc1ccc(Cl)cc1-c1ccnc2c(C(=O)O)csc12` [compound 1644], under setting [3], the IC50 is 14.5 nM. In the case of `Cc1c(CN(C)C)c(C(F)(F)F)cc2nc(C)n(CCOc3ccc(Cl)cc3-c3ccnc4c(C(=O)O)csc34)c(=O)c12` [compound 620], the IC50 was < 50 nM under setting [1] and 36.9 nM under setting [2]. In the case of `Cc1nc2cnc(N(C)[C@H]3C[C@H](N(C)CCF)C3)c(C#N)c2c(=O)n1CC#Cc1ccc(Cl)cc1-c1ccnc2c(C(=O)O)csc12` [compound 1532], the IC50 under setting [3] was 11.2 nM.

`COc1cc(C#N)c2c(=O)n(CCOc3ccc(Cl)cc3-c3ccnc4c(C(=O)O)csc34)c(C)nc2c1` [compound 405]: the IC50 is < 50 nM under setting [1] and 19.7 nM under setting [2]. Regarding `N#Cc1cc(F)cc2nc(C(F)F)n(CCOc3ccc(Cl)cc3-c3ccnc4c(C(=O)O)csc34)c(=O)c12` [compound 1938], the IC50 under setting [3] is 46.3 nM. For `Cc1nc2c(F)cc(CN(C)C)c(C#N)c2c(=O)n1CCOc1ccc(Cl)cc1-c1ccnc2c(C(=O)O)csc12` [compound 508], the IC50 reads like this: under setting [1], < 50 nM; under setting [2], 15.2 nM. Consider `Cc1nc2ccc(CN(C)C)c(C#N)c2c(=O)n1CCOc1ccc(Cl)cc1-c1ccnc2c(C(=O)O)csc12` [compound 1936], for which the IC50 under setting [3] was 37.4 nM. Consider `Cc1cc(-c2cc(Cl)ccc2OCCn2c(C)nc3cc(C(F)(F)F)c(-c4ccc(C)c(C)n4)c(C#N)c3c2=O)c2scc(C(=O)O)c2n1` [compound 904], for which the IC50 is, setting by setting: under setting [1], < 50 nM; under setting [2], 4.19 nM. The matching figures for `COC(=O)c1csc2c(-c3cc(Cl)ccc3C#CCn3c(C)nc4cnc(N(C)C5CCN(CC(C)(F)F)CC5)c(C#N)c4c3=O)ccnc12` [compound 980]: < 50 nM and 15.6 nM.

In the case of `Cc1nc2cc(C(F)(F)F)c(N3CC4(C3)CN(C3CC3)C4)c(C#N)c2c(=O)n1CCOc1ccc(Cl)cc1-c1ccnc2ccsc12` [compound 2015], under setting [3], the IC50 was 51.1 nM. For the molecule `CSC1CN(c2c(Cl)cc3nc(C)n(CCOc4ccc(Cl)cc4-c4cc(C)nc5c(C(=O)O)csc45)c(=O)c3c2C#N)C1` [compound 704], the IC50 is, setting by setting: under setting [1], 50 to 1000 nM; under setting [2], 89 nM. The matching figures for `Cc1nc2cc(C(F)(F)F)cc(C#N)c2c(=O)n1CCOc1ccc(Cl)cc1-c1ccnc2c(CC(=O)O)csc12` [compound 202]: < 50 nM and 47.4 nM.

Take `N#Cc1cc2c(=O)n(CCOc3ccc(Cl)cc3-c3cc(C(=O)O)c4ccccc4n3)cnc2cn1` [compound 99]: the IC50 is, setting by setting: under setting [1], > 1000 nM; under setting [2], 3420 nM. For the molecule `Cc1nc2cc(C(F)(F)F)c(N3CCN(C)CC3)c(C#N)c2c(=O)n1CCOc1ccc(Cl)cc1` [compound 808], the IC50 under setting [1] was in the range of 50 to 1000 nM and the IC50 under setting [2] is 52.4 nM. For `Cc1nc2cnc(N3CC4(C3)CN(C3CC3)C4)c(C#N)c2c(=O)n1CC#Cc1ccc(Cl)cc1-c1ccnc2c(C(=O)O)csc12` [compound 822] the same measures were < 50 nM and 10.7 nM. For `Cc1nc2cc(C(F)(F)F)c(N3CCN(CCO)CC3)c(C#N)c2c(=O)n1CC#Cc1ccc(Cl)cc1-c1ccnc2c(C(=O)O)csc12` [compound 859] the same measures were < 50 nM and 5.59 nM.

As to `Cc1cc(-c2cc(Cl)ccc2OCCn2c(C)nc3cnc(C#N)cc3c2=O)c2scc(C(=O)NS(C)(=O)=O)c2n1` [compound 598], the IC50 is, setting by setting: under setting [1], 50 to 1000 nM; under setting [2], 57.2 nM.

Take `Cc1cc(-c2cc(Cl)ccc2OCCn2c(C)nc3cc(C(F)(F)F)c(N4CCN(C)CC4)c(C#N)c3c2=O)c(C)c(C(=O)O)n1` [compound 1226]: the IC50 reads like this: under setting [1], < 50 nM; under setting [3], 6.63 nM.

Consider `N#Cc1cc2c(=O)n(CCOc3ccc(Cl)cc3-c3ncc(C(=O)O)s3)cnc2cn1` [compound 52], for which the IC50 is, setting by setting: under setting [1], > 1000 nM; under setting [2], > 3000 nM. For `CCc1cc(-c2cc(Cl)ccc2OCCn2c(C)nc3c(C)nc(N)c(C#N)c3c2=O)c2scc(C(=O)O)c2n1` [Compound 1069] the same measures were < 50 nM and 1.52 nM. For `Cc1nc2cncc(C#N)c2c(=O)n1C/C=C/c1ccc(Cl)cc1-c1cccc(C(=O)O)c1` [compound 44], the IC50 reads like this: under setting [1], 50 to 1000 nM; under setting [2], 73.1 nM. In the case of `CCc1cc(-c2cc(Cl)ccc2OCCn2c(C)nc3cc(C(F)(F)F)c(N4CC5(C4)CN(C4CC4)C5)c(C#N)c3c2=O)c2scc(C(=O)O)c2n1` [compound 1931], the IC50 under setting [3] was 19.7 nM. On the same count and under the same terms, the result for `Cc1nc2cnc(N(C)C3CCN(CC(F)F)CC3)c(C#N)c2c(=O)n1CC#Cc1ccc(Cl)cc1-c1ccnc2c(C(N)=O)csc12` [compound 1281] reads 117 nM.

For `Cc1nc2cnc(N3CCN(C4CC4)CC3)c(C#N)c2c(=O)n1CC#Cc1ccc(Cl)cc1-c1ccnc2c(C(=O)O)csc12` [compound 1162], the IC50 by setting is: under setting [1], < 50 nM; under setting [2], 21.6 nM.

For `N#Cc1ccc(F)c2nc(C(F)F)n(CCOc3ccc(Cl)cc3-c3ccnc4c(C(=O)O)csc34)c(=O)c12` [compound 1941], the IC50 under setting [3] was 61.6 nM. On the same count and under the same terms, as for `Cc1nc2cnc(N(C)C3CCN(CC(F)(F)F)CC3)c(C#N)c2c(=O)n1CC#Cc1ccc(Cl)cc1-c1ccnc2c(C(=O)NS(=O)(=O)Cc3ccccn3)csc12` [compound 1673], the figure is 7.22 nM. Take `N#Cc1cc2c(=O)n(CCOc3ccc(C(F)F)cc3-c3cccc(C(=O)O)c3)cnc2cn1` [compound 126]: the IC50 is, setting by setting: under setting [1], > 1000 nM; under setting [2], 8360 nM. Take `Cc1nc2cnc(N3CC4(C3)CN(C3C(C)(C)C3(C)C)C4)c(C#N)c2c(=O)n1CCOc1ccc(Cl)cc1-c1ccnc2c(C(=O)O)csc12` [compound 1476]: the IC50 under setting [3] is 16.2 nM.

`Cc1cc(-c2c(C(F)(F)F)cc3nc(C)n(CCOc4ccc(Cl)cc4-c4cc(C)nc5c(C(=O)O)csc45)c(=O)c3c2C#N)c(F)cn1` [compound 471]: the IC50 was < 50 nM under setting [1] and 28.8 nM under setting [2]. Take `Cc1nc2cc(C(F)(F)F)c(N3CC4(C3)CN(C3CC3)C4)c(C#N)c2c(=O)n1CCCc1ccc(Cl)cc1-c1ccnc2c(C(=O)O)csc12` [compound 1158]: the IC50 was < 50 nM under setting [1] and 15.8 nM under setting [2]. For `Cc1cc(-c2cc(Cl)ccc2OCCn2c(C)nc3cnc(OC4CNC4)c(C#N)c3c2=O)c2sc(C)c(C(=O)O)c2n1` [compound 869] the same measures were < 50 nM and 25.4 nM. For the molecule `Cc1nc2cnc(N(C)C3CCN(CC(F)(F)F)CC3)c(C#N)c2c(=O)n1CC#Cc1ccc(Cl)cc1-c1ccnc2c(C(=O)NS(=O)(=O)c3cn(C)cn3)csc12` [compound 1667], the IC50 under setting [3] is 12.2 nM. For the molecule `CN1c2cc(C(F)(F)F)cc(C#N)c2C(=O)N(CCOc2ccc(Cl)cc2-c2ccnc3c(C(=O)O)csc23)C1(C)C` [compound 355], the IC50 is 50 to 1000 nM under setting [1] and 146 nM under setting [2]. Regarding `Cc1nc2cc(C(F)(F)F)c(N3CCN(C)CC3)c(C#N)c2c(=O)n1CCOc1ccc(Cl)cc1-c1cc(C(=O)O)nc(N(C)C)c1` [compound 1225], the IC50 under setting [1] was < 50 nM and the IC50 under setting [3] is 3.12 nM. With `Cc1cc(-c2cc(Cl)ccc2OCCn2c(C)nc3cc(C(F)(F)F)c(CN4C[C@@H](C)O[C@@H](C)C4)c(C#N)c3c2=O)c2scc(C(=O)O)c2n1` [compound 642], the IC50 was < 50 nM under setting [1] and 3.63 nM under setting [2]. Regarding `Cc1cc(-c2cc(Cl)ccc2OCCn2c(C)nc3cnc(OC(F)F)c(C#N)c3c2=O)c2scc(C(=O)O)c2n1` [compound 602], the IC50 is, setting by setting: under setting [1], < 50 nM; under setting [2], 10.2 nM.

In the case of `CCN(c1ncc2nc(C)n(CC#Cc3ccc(Cl)cc3-c3ccnc4c(C(=O)NS(=O)(=O)c5ccccn5)csc34)c(=O)c2c1C#N)C1CCN([C@H]2C[C@H](OC(F)F)C2)CC1` [compound 1771], under setting [3], the IC50 was 26.6 nM. On the same count and under the same terms, as for `Cc1nc2cc(C(F)(F)F)c(N3CCN(C)CC3)nc2c(=O)n1CCOc1ccc(Cl)cc1-c1ccnc2c(C(=O)NS(C)(=O)=O)csc12` [compound 1300], the figure is 18.1 nM; as for `Cc1nc(N2CCN(C)CC2)c(C#N)c2c(=O)n(CC#Cc3ccc(Cl)cc3-c3ccnc4c(C(=O)O)csc34)c(C)nc12` [compound 1273], 7.48 nM. Regarding `Cc1nc2cc(C(F)(F)F)nc(C#N)c2c(=O)n1CCOc1ccc(Cl)cc1-c1cccc(C(=O)O)c1` [compound 154], under setting [1], the IC50 lay in the range of 50 to 1000 nM. As to `Cc1c(O)c2cc(C(F)(F)F)cc(C#N)c2c(=O)n1CCOc1ccc(Cl)cc1-c1ccnc2c(C(=O)O)csc12` [compound 310], the IC50 is, setting by setting: under setting [1], 50 to 1000 nM; under setting [2], 97.7 nM.

On to `Cc1nc2cncc(C#N)c2c(=O)n1CCOc1ccc(Cl)cc1-c1cccc(C(=O)O)c1` [compound 1982], for which, under setting [3], the IC50 is 36.4 nM. On the same count and under the same terms, as for `Cc1nc2cnc(N3CC(N4CCC(F)(F)CC4)C3)c(C#N)c2c(=O)n1CCOc1ccc(Cl)cc1-c1ccnc2c(C(=O)O)csc12` [compound 1340], the figure is 44.2 nM.
